Data published in US20080269348A1, “Novel Arylbicyclo[3.1.0]Hexylamines And Methods And Compositions For Their Preparation And Use” (priority 2006, published 2008).

Assays:
[1] = biological target: T1, dopamine (DA) uptake (Rattus norvegicus, UniProt P23977); experiment: biochemical; conditions: read-out: Uptake Inhibition % at 500 nM DA
T1 construct: synaptosomal preparations were made from either whole brain (5-HT), striatum (DA) or hypothalamus (NE); from tissue; host or cells: rat striatum synaptosomes
T1 sequence (P23977 whole entry): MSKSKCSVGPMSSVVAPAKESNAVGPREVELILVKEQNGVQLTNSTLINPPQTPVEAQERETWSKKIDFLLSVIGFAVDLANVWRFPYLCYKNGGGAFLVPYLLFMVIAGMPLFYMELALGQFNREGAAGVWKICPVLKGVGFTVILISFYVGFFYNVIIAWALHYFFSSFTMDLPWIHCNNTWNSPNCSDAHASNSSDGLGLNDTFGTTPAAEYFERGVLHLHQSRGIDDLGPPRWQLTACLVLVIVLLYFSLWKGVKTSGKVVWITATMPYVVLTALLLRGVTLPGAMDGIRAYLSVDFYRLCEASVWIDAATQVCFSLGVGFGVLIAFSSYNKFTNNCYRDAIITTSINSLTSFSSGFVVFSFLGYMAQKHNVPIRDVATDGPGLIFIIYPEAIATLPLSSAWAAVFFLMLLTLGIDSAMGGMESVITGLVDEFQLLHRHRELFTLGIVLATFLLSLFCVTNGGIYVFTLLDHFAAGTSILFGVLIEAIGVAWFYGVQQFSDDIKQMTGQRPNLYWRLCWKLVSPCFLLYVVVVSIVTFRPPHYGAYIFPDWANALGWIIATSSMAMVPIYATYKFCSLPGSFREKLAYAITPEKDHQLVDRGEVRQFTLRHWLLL
Experimental: (§1) The effects of arylbicyclo[3.1.0]hexylamines of the invention for inhibiting transport of norepinephrine (NE) and/or dopamine (DA) and/or serotonin (5-HT) were evaluated using preparations of synaptosomes from different regions of the rat brain according to previously-reported techniques.
(§2) Whole brains were obtained from normal rats, and synaptosomal preparations were made from either whole brain (5-HT), striatum (DA) or hypothalamus (NE) by gentle disruption in 10 volumes (w/v) of 0.32 M sucrose (0-4° C.) using a Teflon-glass homogenizer. The homogenate was then centrifuged at 1000×g for 10 min. The supernatant was retained and centrifuged at 23000 g for 20 min. The resulting pellet was gently resuspended in 200 volumes of 0.32 M sucrose (0-4° C.) using a teflon-glass homogenizer. Aliquots (250 μL) of this preparation were added to tubes, along with 0.2 μCi/mL of [^3H]5-HT, [^3H]DA, or [^3H]NE, 200 μL of selected 1-arylbicyclo[3.1.0]hexanamine test compounds (to yield final concentrations of 500 nM) and 1 mL of Krebs-Ringer bicarbonate buffer (pH 7.4). […] At the end of this period, the assay was terminated by rapid filtration over Whatman GF/C glass fiber filters. The filters were rinsed 3 times with 4 ml of Krebs-Ringer bicarbonate buffer (0-4° C.), and the radioactivity retained on the filters was measured by liquid scintillation spectrometry.

[2] = biological target: T2, serotonin (5-HT) uptake (Rattus norvegicus, UniProt P31652); experiment: biochemical; conditions: read-out: Uptake Inhibition % at 500 nM 5-HT
T2 construct: synaptosomal preparations were made from either whole brain (5-HT), striatum (DA) or hypothalamus (NE); from tissue; host or cells: rat whole brain synaptosomes
T2 sequence (P31652 whole entry): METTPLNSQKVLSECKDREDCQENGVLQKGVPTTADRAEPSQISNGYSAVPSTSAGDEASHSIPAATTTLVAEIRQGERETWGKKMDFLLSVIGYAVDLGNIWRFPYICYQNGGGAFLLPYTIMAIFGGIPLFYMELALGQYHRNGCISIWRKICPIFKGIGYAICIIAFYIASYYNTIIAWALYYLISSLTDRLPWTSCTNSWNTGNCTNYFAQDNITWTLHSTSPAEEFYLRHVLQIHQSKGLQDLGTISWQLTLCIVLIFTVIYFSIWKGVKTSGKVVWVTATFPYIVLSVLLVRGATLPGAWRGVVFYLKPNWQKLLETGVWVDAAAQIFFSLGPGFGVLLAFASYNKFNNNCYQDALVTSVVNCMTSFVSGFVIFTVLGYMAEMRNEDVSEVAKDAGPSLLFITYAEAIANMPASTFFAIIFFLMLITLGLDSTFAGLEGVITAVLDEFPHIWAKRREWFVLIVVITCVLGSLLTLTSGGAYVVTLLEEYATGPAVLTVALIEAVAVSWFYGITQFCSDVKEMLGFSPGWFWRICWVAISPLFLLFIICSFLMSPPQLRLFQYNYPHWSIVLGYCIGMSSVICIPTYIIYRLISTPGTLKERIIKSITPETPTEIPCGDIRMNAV
Experimental: as §1, §2

[3] = biological target: T3, norepinephrine (NE) uptake (Rattus norvegicus, UniProt Q63380); experiment: Inhibition of [3H]NE uptake in rat hypothalamus synaptosomes; type: biochemical; conditions: 500 nM, 20 min at 37° C.
T3 construct: synaptosomal preparations were made from either whole brain (5-HT), striatum (DA) or hypothalamus (NE); from tissue; host or cells: rat hypothalamus synaptosomes
T3 sequence (Q63380 1-617): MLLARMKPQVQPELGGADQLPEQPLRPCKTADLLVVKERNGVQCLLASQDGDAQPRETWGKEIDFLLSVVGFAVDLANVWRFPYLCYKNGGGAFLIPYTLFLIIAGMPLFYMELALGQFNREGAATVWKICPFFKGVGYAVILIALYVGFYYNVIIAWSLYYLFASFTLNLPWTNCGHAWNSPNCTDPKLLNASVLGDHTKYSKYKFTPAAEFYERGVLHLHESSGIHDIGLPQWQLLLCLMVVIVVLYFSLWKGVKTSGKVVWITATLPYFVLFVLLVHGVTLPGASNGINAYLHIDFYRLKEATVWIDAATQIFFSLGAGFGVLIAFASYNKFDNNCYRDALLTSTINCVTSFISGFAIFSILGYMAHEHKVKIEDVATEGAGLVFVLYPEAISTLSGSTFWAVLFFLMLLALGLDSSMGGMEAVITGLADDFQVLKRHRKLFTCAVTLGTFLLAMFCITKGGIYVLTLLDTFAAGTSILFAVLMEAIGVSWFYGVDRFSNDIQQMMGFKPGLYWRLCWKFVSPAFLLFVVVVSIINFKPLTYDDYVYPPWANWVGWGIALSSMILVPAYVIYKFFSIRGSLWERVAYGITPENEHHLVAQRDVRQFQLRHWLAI
Experimental: as §1, §2

Structure (SMILES) | inhibition at 0.5 µM [1] [%] | inhibition at 0.5 µM [2] [%] | inhibition at 0.5 µM [3] [%]
NC1C[C@H]2C[C@]2(c2ccc(Cl)c(Cl)c2)C1 (stereo partly drawn) | 83 | 75 | 59
NC1C[C@H]2C[C@]2(c2cccc3ccccc23)C1 (stereo partly drawn) [5-p-tolylbicydo[3.1.0]hexan-2-amine] | 39 | 74 | 42
